Assay results: US10653658B2, “Biofilm inhibiting compositions enhancing weight gain in livestock” (Akeso Biomedical, Inc., priority 2015, dated 2020)
Marks after values point to notes of the source that are not given here.

Assay: Growth performance of broilers given FeQ or FeTyr in water/feed, dirty litter Campylobacter challenge at day 20 (Example 1)
Assay type: in vivo, Ross 308 male broilers
Settings: for AFD (average feed intake) Day 0-20 / AWG (average weight gain) Day 0-20 / MFCR (mortality adjusted) Day 0-20: before challenge
Method: A study was performed to evaluate growth promotion and reduction of Campylobacter carriage using FeQ and FeTyr in Ross 308 male broilers with 7 treatment groups. Each treatment group comprised four replicates of 10 birds per pen (40 birds/treatment group and 4 pens of 10 birds/treatment group), with 2 control groups and 5 test groups. All the test groups and one of the control groups were exposed at day 20 of the trial to dirty litter, which tested positive for Campylobacter. This method was used to provide a more natural method to Campylobacter challenge the birds. Thus there was a positive control where one treatment group was challenged with Campylobacter and one negative control group where the birds were not challenged, and five treatment groups that were all challenged with Campylobacter. The total number of birds used in the 7 treatment groups was 280. Treatment group 1 was a negative control where birds just received the commercial feed, and were not challenged with dirty litter containing Campylobacter. Treatment group 2 was the positive control where the birds received the commercial feed, and were challenged with dirty litter containing Campylobacter at day 20. Treatment group 3 received 0.22 g/L of FeQ in their drinking water and 0.22 g/Kg FeQ in their feed during the entire trial, and was challenged with dirty litter containing Campylobacter at day 20. Treatment group 5 received 0.22 g/L of FeQ in their drinking water during the entire trial, and was challenged with dirty litter containing Campylobacter at day 20. Treatment group 6 received 0.22 g/kg FeQ in their feed during the entire trial, and was challenged with dirty litter containing Campylobacter at day 20. Treatment group 7 received 0.022 g/L FeQ in their drinking water during the entire trial, and was challenged with dirty litter containing Campylobacter at day 20. Treatment group 8 received 0.02 g/L FeTyr in their drinking water during the entire trial, and was challenged with dirty litter containing Campylobacter at day 20. The FeTyr was pre-dissolved in DMSO, and diluted to provide a solution of 0.02 g/L of FeTyr in water. (An additional treatment group 4 was terminated due to solubility issues.)
The birds were fed with a commercial three-phase feeding program using starter, grower and finisher feeds with formulations shown in Table 2. All diets had coccidiostat (MAXIBAN® at 0.0625% in starter and […] and MONTEBAN® at 0.06% in finisher phase). Xylanase (RONOZYME® WX at 200 g per ton) and phytase (RONOZYME® P at 150 grams per ton) were added to all diets.
The feeding program is show in Table 3. The birds were reared in floor pens to day 42, and fed starter, grower and finisher feed at day 0 to 11, 11 to 24, and 24 to 42 days, respectively. All birds were weighed individually and feed weigh backs recorded per pen at day 0, 11, 21, 24 and 42 days.
Prior to challenging the chickens with dirty litter containing Campylobacter at day 20, each pen was tested for Campylobacter using cloacal swabs. All pens tested negative for Campylobacter prior to the challenge. At day 20, litter, which was naturally Campylobacter-contaminated, was tested to confirm the presence of Campylobacter, and then added (approximately 2 kg/pen) to the litter in all pens except in pens for treatment group 1 (the negative control). At day 28, the pen litter was sampled to confirm the presence or absence of Campylobacter. At day 41 and 42, caecal samples were taken from 3 birds per pen (12 birds per treatment group) and tested for Campylobacter enumeration. At day 42, digesta, fecal samples, and caecal content was taken from all birds, and pooled per pen. Two birds per pen were also taken from treatment groups 1-3, euthanized, and blood samples taken. […]

[1] = FeQ groups 3, 5, 6, 7 pooled, absence of Campylobacter challenge
[2] = treatment 3: 0.22 g/L FeQ in water + 0.22 g/kg FeQ in feed
[3] = treatment 5: 0.22 g/L FeQ in water
[4] = treatment 6: 0.22 g/kg FeQ in feed
[5] = treatment 7: 0.022 g/L FeQ in water

Structure (SMILES): O=C([O-])C1(O)CC(O)C(O)C(O)C1.O=C([O-])C1(O)CC(O)C(O)C(O)C1.O=C([O-])C1(O)CC(O)C(O)C(O)C1.[Fe+3] (centres unmarked) [FeQ, Ferric Quinate]
- ABW (average body weight) Day 11 [1]: 0.339 kg
- ABW (average body weight) Day 20 [1]: 0.963 kg
- AFD (average feed intake) 0-20 days [1]: 1.191 kg
- AWG (average weight gain) 0-20 days [1]: 0.923 kg
- effect on growth performance in the absence of Campylobacter challenge, first 20 days (compared with control groups 1 and 2): promotes growth of chicken
- ABW (average body weight) Day 0 [2]: 0.040 kg
- ABW (average body weight) Day 11 [2]: 0.346 kg
- ABW (average body weight) Day 20 [2]: 0.972 kg
- ABW (average body weight) Day 25 [2]: 1.424 kg
- ABW (average body weight) Day 42 [2]: 3.342 kg
- AFD (average feed intake) Day 0-11 [2]: 0.356 kg
- AFD (average feed intake) Day 0-42 [2]: 5.267 kg
- AFD (average feed intake) Day 11-20 [2]: 0.857 kg
- AFD (average feed intake) Day 11-25 [2]: 1.524 kg
- AFD (average feed intake) Day 20-25 [2]: 0.667 kg
- AFD (average feed intake) Day 20-42 [2]: 4.054 kg
- AFD (average feed intake) Day 25-42 [2]: 3.387 kg
- AWG (average weight gain) Day 0-11 [2]: 0.306 kg
- AWG (average weight gain) Day 0-42 [2]: 3.302^ab kg
- AWG (average weight gain) Day 11-20 [2]: 0.625 kg
- AWG (average weight gain) Day 11-25 [2]: 1.078 kg
- AWG (average weight gain) Day 20-25 [2]: 0.453 kg
- AWG (average weight gain) Day 20-42 [2]: 2.370^ab kg
- AWG (average weight gain) Day 25-42 [2]: 1.918^ab kg
- EPEF (European production and efficiency factor) Day 20 [2]: 350.4
- EPEF (European production and efficiency factor) Day 42 [2]: 262.9
- MFCR (mortality adjusted FCR) Day 11-20 [2]: 1.375
- MFCR (mortality adjusted FCR) Day 11-25 [2]: 1.417
- MFCR (mortality adjusted FCR) Day 20-25 [2]: 1.477
- MFCR (mortality adjusted FCR) Day 25-42 [2]: 1.773
- MFCR (mortality adjusted feed conversion ratio) Day 0-11 [2]: 1.181^ab
- MFCR (mortality adjusted) Day 0-42 [2]: 1.595
- MFCR (mortality adjusted) Day 20-42 [2]: 1.713
- AFD (average feed intake) Day 0-20 [2]: 1.213 kg
- AWG (average weight gain) Day 0-20 [2]: 0.931 kg
- MFCR (mortality adjusted) Day 0-20 [2]: 1.310
- ABW (average body weight) Day 0 [3]: 0.040 kg
- ABW (average body weight) Day 11 [3]: 0.334 kg
- ABW (average body weight) Day 20 [3]: 0.943 kg
- ABW (average body weight) Day 25 [3]: 1.384 kg
- ABW (average body weight) Day 42 [3]: 3.407 kg
- AFD (average feed intake) Day 0-11 [3]: 0.352 kg
- AFD (average feed intake) Day 0-42 [3]: 5.188 kg
- AFD (average feed intake) Day 11-20 [3]: 0.821 kg
- AFD (average feed intake) Day 11-25 [3]: 1.479 kg
- AFD (average feed intake) Day 20-25 [3]: 0.658 kg
- AFD (average feed intake) Day 20-42 [3]: 4.015 kg
- AFD (average feed intake) Day 25-42 [3]: 3.357 kg
- AWG (average weight gain) Day 0-11 [3]: 0.294 kg
- AWG (average weight gain) Day 0-42 [3]: 3.367^ab kg
- AWG (average weight gain) Day 11-20 [3]: 0.609 kg
- AWG (average weight gain) Day 11-25 [3]: 1.050 kg
- AWG (average weight gain) Day 20-25 [3]: 0.441 kg
- AWG (average weight gain) Day 20-42 [3]: 2.464^ab kg
- AWG (average weight gain) Day 25-42 [3]: 2.023^b kg
- EPEF (European production and efficiency factor) Day 20 [3]: 352.0
- EPEF (European production and efficiency factor) Day 42 [3]: 278.3
- MFCR (mortality adjusted FCR) Day 11-20 [3]: 1.348
- MFCR (mortality adjusted FCR) Day 11-25 [3]: 1.409
- MFCR (mortality adjusted FCR) Day 20-25 [3]: 1.495
- MFCR (mortality adjusted FCR) Day 25-42 [3]: 1.706
- MFCR (mortality adjusted feed conversion ratio) Day 0-11 [3]: 1.210^ab
- MFCR (mortality adjusted) Day 0-42 [3]: 1.560
- MFCR (mortality adjusted) Day 20-42 [3]: 1.665
- AFD (average feed intake) Day 0-20 [3]: 1.173 kg
- AWG (average weight gain) Day 0-20 [3]: 0.903 kg
- MFCR (mortality adjusted) Day 0-20 [3]: 1.303
- ABW (average body weight) Day 0 [4]: 0.041 kg
- ABW (average body weight) Day 11 [4]: 0.351 kg
- ABW (average body weight) Day 20 [4]: 0.991 kg
- ABW (average body weight) Day 25 [4]: 1.426 kg
- ABW (average body weight) Day 42 [4]: 3.464 kg
- AFD (average feed intake) Day 0-11 [4]: 0.360 kg
- AFD (average feed intake) Day 0-42 [4]: 5.201 kg
- AFD (average feed intake) Day 11-20 [4]: 0.841 kg
- AFD (average feed intake) Day 11-25 [4]: 1.526 kg
- AFD (average feed intake) Day 20-25 [4]: 0.685 kg
- AFD (average feed intake) Day 20-42 [4]: 4.001 kg
- AFD (average feed intake) Day 25-42 [4]: 3.315 kg
- AWG (average weight gain) Day 0-11 [4]: 0.310 kg
- AWG (average weight gain) Day 0-42 [4]: 3.423^b kg
- AWG (average weight gain) Day 11-20 [4]: 0.640 kg
- AWG (average weight gain) Day 11-25 [4]: 1.075 kg
- AWG (average weight gain) Day 20-25 [4]: 0.434 kg
- AWG (average weight gain) Day 20-42 [4]: 2.473^ab kg
- AWG (average weight gain) Day 25-42 [4]: 2.039^b kg
- EPEF (European production and efficiency factor) Day 20 [4]: 364.8
- EPEF (European production and efficiency factor) Day 42 [4]: 265.0
- MFCR (mortality adjusted FCR) Day 11-20 [4]: 1.343
- MFCR (mortality adjusted FCR) Day 11-25 [4]: 1.440
- MFCR (mortality adjusted FCR) Day 20-25 [4]: 1.599
- MFCR (mortality adjusted FCR) Day 25-42 [4]: 1.704
- MFCR (mortality adjusted feed conversion ratio) Day 0-11 [4]: 1.168^a
- MFCR (mortality adjusted) Day 0-42 [4]: 1.563
- MFCR (mortality adjusted) Day 20-42 [4]: 1.678
- AFD (average feed intake) Day 0-20 [4]: 1.201 kg
- AWG (average weight gain) Day 0-20 [4]: 0.951 kg
- MFCR (mortality adjusted) Day 0-20 [4]: 1.284
- ABW (average body weight) Day 0 [5]: 0.040 kg
- ABW (average body weight) Day 11 [5]: 0.325 kg
- ABW (average body weight) Day 20 [5]: 0.947 kg
- ABW (average body weight) Day 25 [5]: 1.388 kg
- ABW (average body weight) Day 42 [5]: 3.304 kg
- AFD (average feed intake) Day 0-11 [5]: 0.348 kg
- AFD (average feed intake) Day 0-42 [5]: 5.201 kg
- AFD (average feed intake) Day 11-20 [5]: 0.829 kg
- AFD (average feed intake) Day 11-25 [5]: 1.490 kg
- AFD (average feed intake) Day 20-25 [5]: 0.661 kg
- AFD (average feed intake) Day 20-42 [5]: 4.023 kg
- AFD (average feed intake) Day 25-42 [5]: 3.362 kg
- AWG (average weight gain) Day 0-11 [5]: 0.285 kg
- AWG (average weight gain) Day 0-42 [5]: 3.265^ab kg
- AWG (average weight gain) Day 11-20 [5]: 0.622 kg
- AWG (average weight gain) Day 11-25 [5]: 1.064 kg
- AWG (average weight gain) Day 20-25 [5]: 0.441 kg
- AWG (average weight gain) Day 20-42 [5]: 2.357^ab kg
- AWG (average weight gain) Day 25-42 [5]: 1.916^ab kg
- EPEF (European production and efficiency factor) Day 20 [5]: 354.5
- EPEF (European production and efficiency factor) Day 42 [5]: 276.2
- MFCR (mortality adjusted FCR) Day 11-20 [5]: 1.333
- MFCR (mortality adjusted FCR) Day 11-25 [5]: 1.406
- MFCR (mortality adjusted FCR) Day 20-25 [5]: 1.513
- MFCR (mortality adjusted FCR) Day 25-42 [5]: 1.793
- MFCR (mortality adjusted feed conversion ratio) Day 0-11 [5]: 1.236^b
- MFCR (mortality adjusted) Day 0-42 [5]: 1.612
- MFCR (mortality adjusted) Day 20-42 [5]: 1.739
- AFD (average feed intake) Day 0-20 [5]: 1.178 kg
- AWG (average weight gain) Day 0-20 [5]: 0.907 kg
- MFCR (mortality adjusted) Day 0-20 [5]: 1.302
- effect on MFCR at day 42 compared with positive control (FIG. 2) (treatment groups 3, 5, 6, 7 and 8, challenged with dirty litter): positive effect on MFCR
- effect on growth: average body weight at day 42 compared with positive control (FIG. 1) (treatment groups 3, 5, 6, 7 and 8, challenged with dirty litter containing Campylobacter): positive effect on growth
